Measured values taken from patent US12583895B2, “Polypeptides for restoring endothelial function and methods of use thereof” (Vanderbilt University, priority 2019, dated 2026).
“Also recorded” adds a separate entry of the source. Non-standard residues stand in square brackets, D forms with d. No end group written: not given here. pS = N[C@@H](COP(=O)(O)O)C(=O)O

How the values were obtained:
[1] = system: rat aorta; assay: Endothelial-dependent relaxation of rat aorta after acidosis (normal saline) injury; type: cell-based; settings: NiPp 500 μM 30 min pretreatment in PL, then NS with NiPp 500 μM 2 h
Experimental: Freshly isolated rat aorta (RA) was cut into rings and then pretreated in the absence or presence of NiPp (500 μM) in PL for 30 min. Tissue rings were then transferred to normal saline (NS) to induce injury in the absence or presence of NiPp (500 μM) and continued incubation for 2 h at room temperature. After treatments, RA were suspended in the muscle bath, contracted with PE and then treated with escalating doses of carbachol (CCH; 10^−8 to 10^−5 M). The percent relaxation was determined as a change to the maximal PE-induced contraction. n=5-7 rats. *p<0.05 in two-way ANOVA with Tukey post-test. NiPp restores NS-induced endothelial dysfunction in RA.
Tissue rings were then transferred to NS and continued incubation in the absence or presence of NiPp (500 μM) for 2 h at room temperature. Control rings (Ctrl) were incubated in PL for 2.5 h. […] The percent relaxation was determined as a change to the maximal PE-induced contraction. […] Data are expressed as mean±SD. […]
This produced the maximal force tension relationship as previously described. […] Contractile responses were defined by stress, calculated using force generated by tissues as follows: stress (×10^5 N/m^2)=force (g)×0.0987/area, where area=wet weight (mg)/at maximal length (mm)]/1.055.
Relaxation was calculated as percent change in stress compared to the maximal PE-induced contraction (set as 100%). […]

[2] = system: human saphenous veins (HSV); assay: Endothelial-dependent relaxation of human saphenous veins from CABG patients, muscle bath; type: cell-based; settings: human saphenous vein; for endothelial function (percent relaxation to carbachol) in HSV / relaxation responses normalized to baseline relaxation in HSV: 1 hour; for relaxation responses normalized to baseline relaxation in HSV: mean±SD
Experimental: Human saphenous veins (HSV) were collected from patients undergoing coronary artery bypass grafting procedures and treated with NiPp (500 μM) for 1 hour at room temperature. PE-precontracted tissues were treated with carbachol (CCH; 10^−8 to 10^−5M). Percent relaxation was determined as a change to the maximal PE-induced contraction. Data are reported as mean responses±standard deviation. n=2. Baseline endothelial function in HSV was low.
PE-precontracted tissues were treated with carbachol (CCH; 10^−8 to 10^−5M). Percent relaxation were determined as a change to the maximal PE-induced contraction. Data are reported as mean responses±standard deviation. n=10. […] When normalized to baseline relaxation, NiPp led to 255±321.5% in relaxation responses in HSV.
HSV were suspended in the muscle bath, contracted with PE and treated with carbachol (CCH; 10^−8 to 10^−5 M). The percent relaxation was determined as a change to the maximal PE-induced contraction. Percent relaxation to 5×10^−6 M CCH is shown. n=10; *p<0.05 in paired t-test. […] Data are expressed as mean±SD.
Human saphenous veins (HSV) was obtained under approval from the Institutional Review Board of Vanderbilt University Medical Center from consented patients undergoing coronary artery bypass grafting procedures. HSV segments were collected immediately following surgical harvest and transported to the laboratory in PL for immediate experimentation.
Measurement of endothelial-dependent relaxation. Rings of HSV or RA (1-2 mm) were suspended in a muscle bath containing a bicarbonate buffer (120 mM sodium chloride, 4.7 mM potassium chloride, 1.0 mM magnesium sulfate, 1.0 mM monosodium phosphate, 10 mM glucose, 1.5 mM calcium chloride, and 25 mM sodium bicarbonate, pH 7.4) equilibrated with 95% O2/5% CO2 at 37° C. for 1 h at a resting tension of 1 g, manually stretched to three times the resting tension, and maintained at resting tension for an additional 1 h.
This produced the maximal force tension relationship as previously described. After equilibration, the rings were primed with 110 mM potassium chloride (with equimolar replacement of sodium chloride in bicarbonate buffer) to determine functional viability. Viable rings were then tested for contractile response to a dose of phenylephrine (PE) to yield submaximal contraction (approximately 60-70% of maximum KCl; 5×10^−6 M for HSV and 1-5×10^−7 M for RA) and relaxed with carbachol (CCH, 5×10^−7 M), an acetylcholine analogue, to determine endothelial-dependent relaxation responses. Force measurements were obtained using the Radnoti force transducer (model 159901A, Radnoti LLC, Monrovia, CA) interfaced with a PowerLab data acquisition system and LabChart software (AD Instruments Inc., Colorado Springs, CO). Contractile responses were defined by stress, calculated using force generated by tissues as follows: stress (×10^5 N/m^2)=force (g)×0.0987/area, where area=wet weight (mg)/at maximal length (mm)]/1.055.
Relaxation was calculated as percent change in stress compared to the maximal PE-induced contraction (set as 100%). Each data point was averaged from at least two rings from the same specimen. To determine concurrent signaling events, tissues were frozen in liquid nitrogen at relevant timepoints.
This study illustrates that the NiPp polypeptide (SEQ ID NO:1) restores endothelial function in aged human saphenous veins. […]

YARAAARQARASPAARRA(pS)AILPG (YARAAARQARASPAARRA[pS]AILPG) [NiPp, Cell-permeant phosphopeptide mimetic of Niban: transduction domain … conjugated to the region surrounding serine 602 of Niban]
endothelial function (percent relaxation to carbachol) after acidosis (normal saline) injury [1]: improved; also recorded: restores
endothelial-dependent relaxation in HSV (percent relaxation to 5×10^−6 M CCH) ([2]; NiPp 100 μM in PL, 2 h, room temperature, n=10): improves; also recorded: improvement
endothelial function (percent relaxation to carbachol) in HSV ([2]; NiPp 100 μM, room temperature, n=10): increased endothelial function
relaxation responses normalized to baseline relaxation in HSV ([2]; NiPp 100 μM, n=10): 255±321.5%
endothelial function (percent relaxation to carbachol) in HSV ([2]; NiPp 500 μM, room temperature, n=2): increased endothelial function
relaxation responses normalized to baseline relaxation in HSV ([2]; NiPp 500 μM, n=2): 183±24%
